# Experimental data from patent US20120100105A1, “AGENT AND METHOD FOR TREATING REFRACTORY CHRONIC HEPATITIS C” (MEIJI SEIKA PHARMA CO., LTD., priority 2009, published 2012).
# What was measured:
# HCV = settings: without ribavirin; cited from earlier work
# genotype 1b HCV [1] = experiment: Antiviral effect of 22β-methoxyolean-12-ene-3β,24(4β)-diol and PEG-IFN in refractory chronic hepatitis C (NR case); blood HCV load by TaqMan PCR; assay type: in vivo, human; settings: for Ratio of negativity achieved in blood HCV after 24 weeks from administrations: NR-case patients N=6; for Ratio of negativity achieved in blood HCV after 24 weeks from administrations (age) / Ratio of negativity achieved in blood HCV after 24 weeks from administrations (sex): NR case
# Method: Subjects were the following patients (12 in total; 7 men, 5 women) who had been infected with genotype 1b HCV and had chronic hepatitis C and who were particularly considered to be highly refractory.
# To these subject patients (NR case), a fine granule containing 25 mg or 400 mg of 22β-methoxyolean-12-ene-3β,24(4β)-diol was orally administered twice a day and 180 μg of PEG-IFN-α-2a (Pegasys: Roche Holding AG and Chugai Pharmaceutical Co., Ltd.) was subcutaneously administered per week. These administrations were continued for 24 weeks (hereinafter, the patients were referred to as a “50 mg/day administration group” or an “800 mg/day administration group”). The transitions of the blood HCV load and safety (clinical test value abnormality: blood hemoglobin value) before the administrations and up to 24 weeks were examined. The blood HCV load was measured using the TaqMan® PCR method, and the baseline of negativity was below 1.2 Log IU/mL.
# The backgrounds of all the patients in the two administration groups are as follows. As for the sex, there were 7 men (58.3%) and 5 women […]. As for the age, the average age was 58.3, the youngest was 43 years old, and the oldest was 69 years old. With the baseline of 60 years old, there were 6 people who were under 60 years old (50.0%) and 6 people who were 60 years old or above (50.0%). The average blood HCV load of the patients before the administrations was 6.66 Log IU/mL with the minimum load of 5.30 Log IU/mL and the maximum load of 7.40 Log IU/mL. These exceeded the baseline, 5.00 Log IU/mL, of the high viral load, and all the patients were infected with genotype 1b.
# genotype 1b HCV [2] = experiment: Antiviral effect of 22β-methoxyolean-12-ene-3β,24(4β)-diol and PEG-IFN in refractory chronic hepatitis C (LVR case); blood HCV load by TaqMan PCR; assay type: in vivo, human; settings: for Ratio of negativity achieved in blood HCV after 12 weeks from administrations (age) / Ratio of negativity achieved in blood HCV after 12 weeks from administrations (sex): LVR case
# Method: Subjects were 21 patients (9 men, 12 women) infected with genotype 1b HCV and having chronic hepatitis C. […] To these subject patients in a refractory chronic hepatitis C case, a fine granule containing 25 mg or 400 mg of […] was orally administered twice a day and 180 μg of PEG-IFN-α-2a (Pegasys: manufactured by Roche Holding AG and Chugai Pharmaceutical Co., Ltd.) was subcutaneously administered per week. […] The blood HCV load was measured using the TaqMan® PCR method, and the baseline of negativity was below 1.2 Log IU/mL.
# The backgrounds of all the patients in the two administration groups are as follows. […] These exceeded the baseline, 5.00 Log IU/mL, of the high viral load, and all the patients were infected with genotype 1b.
# [3] = 60 years old or above, 50 mg/day with PEG-IFN-α-2a
# [4] = 60 years old or above, 800 mg/day with PEG-IFN-α-2a
# [5] = 60 years old or above, total of both doses with PEG-IFN-α-2a
# [6] = Men, 50 mg/day with PEG-IFN-α-2a
# [7] = Men, 800 mg/day with PEG-IFN-α-2a
# [8] = Men, total of both doses with PEG-IFN-α-2a
# [9] = Women, 50 mg/day with PEG-IFN-α-2a
# [10] = Women, 800 mg/day with PEG-IFN-α-2a
# [11] = Women, total of both doses with PEG-IFN-α-2a
# [12] = under 60 years old, 50 mg/day with PEG-IFN-α-2a
# [13] = under 60 years old, 800 mg/day with PEG-IFN-α-2a
# [14] = under 60 years old, total of both doses with PEG-IFN-α-2a
smiles,measurement,setting,value
"CO[C@@H]1CC(C)(C)C[C@H]2C3=CC[C@@H]4[C@@]5(C)CC[C@H](O)[C@](C)(CO)[C@@H]5CC[C@@]4(C)[C@]3(C)CC[C@@]12C [22β-methoxyolean-12-ene-3β,24(4β)-diol]",Anti-HCV activity in combination with an IFN,HCV,synergistic anti-HCV activity
same,Ratio of negativity achieved in blood HCV after 24 weeks from administrations,"genotype 1b HCV [1]; 50 mg/day (25 mg orally twice a day) combined with PEG-IFN-α-2a 180 μg/week s.c., negativity below 1.2 Log IU/mL",50.0% (3/6)
same,Ratio of negativity achieved in blood HCV after 24 weeks from administrations,genotype 1b HCV [1]; 800 mg/day (400 mg orally twice a day) combined with PEG-IFN-α-2a 180 μg/week s.c.,50.0% (3/6)
same,Ratio of negativity achieved in blood HCV after 24 weeks from administrations (age),genotype 1b HCV [1]; [3],50.0% (1/2)
same,Ratio of negativity achieved in blood HCV after 24 weeks from administrations (age),genotype 1b HCV [1]; [4],50.0% (2/4)
same,Ratio of negativity achieved in blood HCV after 24 weeks from administrations (age),genotype 1b HCV [1]; [5],50.0% (3/6)
same,Ratio of negativity achieved in blood HCV after 24 weeks from administrations (sex),genotype 1b HCV [1]; [6],50.0% (2/4)
same,Ratio of negativity achieved in blood HCV after 24 weeks from administrations (sex),genotype 1b HCV [1]; [7],33.3% (1/3)
same,Ratio of negativity achieved in blood HCV after 24 weeks from administrations (sex),genotype 1b HCV [1]; [8],42.9% (3/7)
same,Ratio of negativity achieved in blood HCV after 24 weeks from administrations (sex),genotype 1b HCV [1]; [9],50.0% (1/2)
same,Ratio of negativity achieved in blood HCV after 24 weeks from administrations (sex),genotype 1b HCV [1]; [10],66.7% (2/3)
same,Ratio of negativity achieved in blood HCV after 24 weeks from administrations (sex),genotype 1b HCV [1]; [11],60.0% (3/5)
same,Ratio of negativity achieved in blood HCV after 24 weeks from administrations (age),genotype 1b HCV [1]; [12],50.0% (2/4)
same,Ratio of negativity achieved in blood HCV after 24 weeks from administrations (age),genotype 1b HCV [1]; [13],50.0% (1/2)
same,Ratio of negativity achieved in blood HCV after 24 weeks from administrations (age),genotype 1b HCV [1]; [14],50.0% (3/6)
same,Ratio of negativity achieved in blood HCV after 12 weeks from administrations,"genotype 1b HCV [2]; 50 mg/day (25 mg orally twice a day) combined with PEG-IFN-α-2a 180 μg/week s.c., LVR-case patients N=11, negativity below 1.2 Log IU/mL",63.6% (7/11)
same,Ratio of negativity achieved in blood HCV after 12 weeks from administrations,"genotype 1b HCV [2]; 800 mg/day (400 mg orally twice a day) combined with PEG-IFN-α-2a 180 μg/week s.c., LVR-case patients N=10",50.0% (5/10)
same,Ratio of negativity achieved in blood HCV after 12 weeks from administrations (age),genotype 1b HCV [2]; [3],75.0% (6/8)
same,Ratio of negativity achieved in blood HCV after 12 weeks from administrations (age),genotype 1b HCV [2]; [4],25.0% (1/4)
same,Ratio of negativity achieved in blood HCV after 12 weeks from administrations (age),genotype 1b HCV [2]; [5],58.3% (7/12)
same,Ratio of negativity achieved in blood HCV after 12 weeks from administrations (sex),genotype 1b HCV [2]; [6],60.0% (3/5)
same,Ratio of negativity achieved in blood HCV after 12 weeks from administrations (sex),genotype 1b HCV [2]; [7],50.0% (2/4)
same,Ratio of negativity achieved in blood HCV after 12 weeks from administrations (sex),genotype 1b HCV [2]; [8],55.6% (5/9)
same,Ratio of negativity achieved in blood HCV after 12 weeks from administrations (sex),genotype 1b HCV [2]; [9],66.7% (4/6)
same,Ratio of negativity achieved in blood HCV after 12 weeks from administrations (sex),genotype 1b HCV [2]; [10],50.0% (3/6)
same,Ratio of negativity achieved in blood HCV after 12 weeks from administrations (sex),genotype 1b HCV [2]; [11],58.3% (7/12)
same,Blood HCV load continued to be negative for 48 weeks of the administration period,genotype 1b HCV [2]; patients negative by 12 weeks whose administrations (25 or 400 mg twice a day with PEG-IFN-α-2a 180 μg/week) were continued up to 48 weeks,two out of three patients
same,Relapse after the non-treatment period of subsequent 24 weeks,"genotype 1b HCV [2]; the patients negative through 48 weeks of administration with PEG-IFN-α-2a, complete recovery was achieved",no relapse occurred
same,Ratio of negativity achieved in blood HCV after 12 weeks from administrations (age),genotype 1b HCV [2]; [12],33.3% (1/3)
same,Ratio of negativity achieved in blood HCV after 12 weeks from administrations (age),genotype 1b HCV [2]; [13],66.7% (4/6)
same,Ratio of negativity achieved in blood HCV after 12 weeks from administrations (age),genotype 1b HCV [2]; [14],55.6% (5/9)
